ChEMBL document CHEMBL1153245, “A profile of the in vitro anti-tumor activity of imidazolium-based ionic liquids” (2010)

Experiments:
Format in all cases: functional
DU-145 = test: Anticancer activity against human DU145 cells assessed cell growth at 10 uM after 48 hrs by sulforhodamine B assay relative to control
UO-31 = test: Anticancer activity against human UO31 cells assessed cell growth at 10 uM after 48 hrs by sulforhodamine B assay relative to control
HOP-62 = test: Anticancer activity against human HOP62 cells assessed cell growth at 10 uM after 48 hrs by sulforhodamine B assay relative to control
IGROV-1 = test: Anticancer activity against human IGROV1 cells assessed cell growth at 10 uM after 48 hrs by sulforhodamine B assay relative to control
A549 = test: Anticancer activity against human A549 cells assessed cell growth at 10 uM after 48 hrs by sulforhodamine B assay relative to control
SF-295 = test: Anticancer activity against human SF295 cells assessed cell growth at 10 uM after 48 hrs by sulforhodamine B assay relative to control
COLO 205 = test: Anticancer activity against human COLO205 cells assessed cell growth at 10 uM after 48 hrs by sulforhodamine B assay relative to control
SNB-75 = test: Anticancer activity against human SNB75 cells assessed cell growth at 10 uM after 48 hrs by sulforhodamine B assay relative to control
[1] = Anticancer activity against human RPMI8266 cells assessed cell growth at 10 uM after 48 hrs by sulforhodamine B assay relative to control
OVCAR-3 = test: Anticancer activity against human OVCAR-3 cells assessed cell growth at 10 uM after 48 hrs by sulforhodamine B assay relative to control
SF-268 = test: Anticancer activity against human SF268 cells assessed cell growth at 10 uM after 48 hrs by sulforhodamine B assay relative to control
UACC-62 = test: Anticancer activity against human UACC62 cells assessed cell growth at 10 uM after 48 hrs by sulforhodamine B assay relative to control
MOLT-4 = test: Anticancer activity against human MOLT4 cells assessed cell growth at 10 uM after 48 hrs by sulforhodamine B assay relative to control
K562 = test: Anticancer activity against human K562 cells assessed cell growth at 10 uM after 48 hrs by sulforhodamine B assay relative to control
NCI-H23 = test: Anticancer activity against human NCI-H23 cells assessed cell growth at 10 uM after 48 hrs by sulforhodamine B assay relative to control
MDA-MB-231 = test: Anticancer activity against human MDA-MB-231 cells assessed cell growth at 10 uM after 48 hrs by sulforhodamine B assay relative to control
SN12C = test: Anticancer activity against human SN12C cells assessed cell growth at 10 uM after 48 hrs by sulforhodamine B assay relative to control
PC-3 = test: Anticancer activity against human PC3 cells assessed cell growth at 10 uM after 48 hrs by sulforhodamine B assay relative to control
NCI-H522 = test: Anticancer activity against human NCI-H522 cells assessed cell growth at 10 uM after 48 hrs by sulforhodamine B assay relative to control
ACHN = test: Anticancer activity against human ACHN cells assessed cell growth at 10 uM after 48 hrs by sulforhodamine B assay relative to control
LOX IMVI = test: Anticancer activity against human LOXIMVI cells assessed cell growth at 10 uM after 48 hrs by sulforhodamine B assay relative to control
OVCAR-8 = test: Anticancer activity against human OVCAR8 cells assessed cell growth at 10 uM after 48 hrs by sulforhodamine B assay relative to control
SK-OV-3 = test: Anticancer activity against human SKOV3 cells assessed cell growth at 10 uM after 48 hrs by sulforhodamine B assay relative to control
SR = test: Anticancer activity against human SR cells assessed cell growth at 10 uM after 48 hrs by sulforhodamine B assay relative to control
HL-60(TB) = test: Anticancer activity against human HL-60(TB) cells assessed cell growth at 10 uM after 48 hrs by sulforhodamine B assay relative to control
OVCAR-5 = test: Anticancer activity against human OVCAR5 cells assessed cell growth at 10 uM after 48 hrs by sulforhodamine B assay relative to control
CAKI-1 = test: Anticancer activity against human Caki1 cells assessed cell growth at 10 uM after 48 hrs by sulforhodamine B assay relative to control
SF-539 = test: Anticancer activity against human SF539 cells assessed cell growth at 10 uM after 48 hrs by sulforhodamine B assay relative to control
TK-10 = test: Anticancer activity against human TK10 cells assessed cell growth at 10 uM after 48 hrs by sulforhodamine B assay relative to control
HCT-116 = test: Anticancer activity against human HCT116 cells assessed cell growth at 10 uM after 48 hrs by sulforhodamine B assay relative to control
HOP-92 = test: Anticancer activity against human HOP92 cells assessed cell growth at 10 uM after 48 hrs by sulforhodamine B assay relative to control
OVCAR-4 = test: Anticancer activity against human OVCAR4 cells assessed cell growth at 10 uM after 48 hrs by sulforhodamine B assay relative to control
M14 = test: Anticancer activity against human M14 cells assessed cell growth at 10 uM after 48 hrs by sulforhodamine B assay relative to control
HCC 2998 = test: Anticancer activity against human HCC2998 cells assessed cell growth at 10 uM after 48 hrs by sulforhodamine B assay relative to control
NCI-H322M = test: Anticancer activity against human NCI-H322M cells assessed cell growth at 10 uM after 48 hrs by sulforhodamine B assay relative to control
RXF 393 = test: Anticancer activity against human RXF393 cells assessed cell growth at 10 uM after 48 hrs by sulforhodamine B assay relative to control
KM12 = test: Anticancer activity against human KM12 cells assessed cell growth at 10 uM after 48 hrs by sulforhodamine B assay relative to control
NCI-H460 = test: Anticancer activity against human NCI-H460 cells assessed cell growth at 10 uM after 48 hrs by sulforhodamine B assay relative to control
NCI/ADR-RES = test: Anticancer activity against human NCI/ADR-RES cells assessed cell growth at 10 uM after 48 hrs by sulforhodamine B assay relative to control
A498 = test: Anticancer activity against human A498 cells assessed cell growth at 10 uM after 48 hrs by sulforhodamine B assay relative to control
SW-620 = test: Anticancer activity against human SW620 cells assessed cell growth at 10 uM after 48 hrs by sulforhodamine B assay relative to control
CCRF-CEM = test: Anticancer activity against human CCRF-CEM cells assessed cell growth at 10 uM after 48 hrs by sulforhodamine B assay relative to control
T47D = test: Anticancer activity against human T47D cells assessed cell growth at 10 uM after 48 hrs by sulforhodamine B assay relative to control

What does the source list for `CCCCCCCCCCCCCCCCCC[n+]1ccn(C)c1.O=S(=O)([N-]S(=O)(=O)C(F)(F)F)C(F)(F)F`?
Activity (DU-145): -8.63%; Activity (UO-31): -66.09%; Activity (HOP-62): -74.14%; Activity (IGROV-1): -43.09%; Activity (A549): -47.24%; Activity (SF-295): -21.51%; Activity (COLO 205): -47.26%; Activity (SNB-75): -55.13%; Activity [1]: 75.58%; Activity (OVCAR-3): -56.27%; Activity (SF-268): -45.26%; Activity (UACC-62): -82.14%; Activity (MOLT-4): 9.25%; Activity (K562): 17.9%; Activity (NCI-H23): -44.29%; Activity (MDA-MB-231): -80.16%; Activity (SN12C): -68.39%; Activity (PC-3): -62.3%; Activity (NCI-H522): -74.3%; Activity (ACHN): -43.53%; Activity (LOX IMVI): -52.24%; Activity (OVCAR-8): -37.35%; Activity (SK-OV-3): -9.16%; Activity (SR): 19%; Activity (HL-60(TB)): 2.22%; Activity (OVCAR-5): -59.68%; Activity (CAKI-1): -78.63%; Activity (SF-539): -82.94%; Activity (TK-10): -72.43%; Activity (HCT-116): -51.46%; Activity (HOP-92): -66.2%; Activity (OVCAR-4): -13.29%; Activity (M14): -30.74%; Activity (HCC 2998): -80.86%; Activity (NCI-H322M): 6.16%; Activity (RXF 393): -62.07%; Activity (KM12): -61.9%; Activity (NCI-H460): -51.32%; Activity (NCI/ADR-RES): -7.98%; Activity (A498): -44.9%; Activity (SW-620): -38.1%; Activity (CCRF-CEM): 67.84%; Activity (T47D): 16.98%

For `CCCCCCCC[n+]1ccn(C)c1.F[B-](F)(F)F`, which Activity (DU-145) is on record?
Its Activity is 95.55%.

What about the Activity (UO-31) of the same molecule?
The Activity was 76.51%.

And the Activity (HOP-62)?
Its Activity is 91.23%.

And the Activity (IGROV-1)?
Its Activity is 85.75%.

And the Activity (A549)?
The Activity was 89.22%.

What about the Activity (SF-295) of the same molecule?
Its Activity is 78.23%.

And the Activity (COLO 205)?
The Activity was 77.64%.

And the Activity (SNB-75)?
Its Activity is 84.84%.

And the Activity [1]?
Its Activity is 64.64%.

What about the Activity (OVCAR-3) of the same molecule?
The Activity was 102.92%.

What about the Activity (SF-268) of the same molecule?
The Activity was 103.08%.

What about the Activity (UACC-62) of the same molecule?
Its Activity is 90.08%.

And the Activity (MOLT-4)?
The Activity was 92.94%.

What about the Activity (K562) of the same molecule?
The Activity was 81.46%.

And the Activity (NCI-H23)?
Its Activity is 59.28%.

What about the Activity (MDA-MB-231) of the same molecule?
Its Activity is 78.93%.

What about the Activity (SN12C) of the same molecule?
The Activity was 97.45%.

What about the Activity (PC-3) of the same molecule?
The Activity was 83.86%.

And the Activity (NCI-H522)?
Its Activity is 69.23%.

What about the Activity (ACHN) of the same molecule?
The Activity was 70.72%.

What about the Activity (LOX IMVI) of the same molecule?
Its Activity is 72.64%.

And the Activity (OVCAR-8)?
The Activity was 73.05%.

What about the Activity (SK-OV-3) of the same molecule?
Its Activity is 81.16%.

And the Activity (SR)?
Its Activity is 87.14%.

And the Activity (HL-60(TB))?
The Activity was 64.63%.

What about the Activity (OVCAR-5) of the same molecule?
The Activity was 92.12%.

What about the Activity (CAKI-1) of the same molecule?
The Activity was 60.04%.

What about the Activity (SF-539) of the same molecule?
The Activity was 74.98%.

What about the Activity (TK-10) of the same molecule?
The Activity was 76.77%.

And the Activity (HCT-116)?
The Activity was 66.53%.

What about the Activity (HOP-92) of the same molecule?
Its Activity is 87.53%.

What about the Activity (OVCAR-4) of the same molecule?
The Activity was 66.15%.

And the Activity (M14)?
Its Activity is 87.56%.

What about the Activity (HCC 2998) of the same molecule?
The Activity was 70.57%.

What about the Activity (NCI-H322M) of the same molecule?
The Activity was 101.83%.

What about the Activity (RXF 393) of the same molecule?
Its Activity is 104.98%.

And the Activity (KM12)?
The Activity was 79.57%.

What about the Activity (NCI-H460) of the same molecule?
The Activity was 98.66%.

What about the Activity (NCI/ADR-RES) of the same molecule?
The Activity was 91.95%.

What about the Activity (A498) of the same molecule?
Its Activity is 99.32%.

And the Activity (SW-620)?
Its Activity is 80.56%.

And the Activity (CCRF-CEM)?
The Activity was 45.61%.

What about the Activity (T47D) of the same molecule?
The Activity was 75.19%.
